According to paper PMC12040169 (PLOS Biology, 2025):

assay: in vitro; conditions: human, hela cells, % viability

Going from Cc1cc2c(s1)c1cnn(CC(=O)NC(C)(C)C)c(=O)c1n2C [CBK284158] to CCC(CC)(CC(=O)Nc1ccc2nc(C)sc2c1)C(=O)O [CBK297882], the viability at 28.5 h, 10 µM rises from 86.6% to 112%.

First: O=C(O)CCN1C(=O)C(O)=C(C(=O)c2ccc(Cl)cc2)C1c1ccccc1[N+](=O)[O-] (stereo not shown) [CBK264553]
Second: O=C(COc1ccc(Cl)cc1Br)NNC(=O)c1ccccc1O [CBK262943]
The viability at 28.5 h, 10 µM of the first is higher: 98.8% for the first, 97.8% for the second.

Going from C=C(C)Cn1c(SCC(=O)O)nnc1-c1ccccc1 [CBK262737] to Cc1cc(NC(=O)c2ccccc2O)n(C)n1 [CBK000190], the viability at 28.5 h, 10 µM rises from 91.9% to 107%.

Compared with Nc1nc2c(cnn2[C@H]2C[C@@H](O)[C@@H](CO)O2)c(=O)[nH]1 [CBK201223], CCOc1ncccc1NC(=O)c1cnc2c(cnn2CC(C)C)c1 [CBK304288] is lower in viability at 28.5 h, 10 µM: 101% for the first, 83.3% for the second.

Compared with Cc1ccc(S(=O)(=O)NC(C)(C)CN2CCN(C(c3ccccc3)c3ccccc3)CC2)cc1 [CBK262799], O=C(O)c1cccc(NS(=O)(=O)c2ccc(S(=O)(=O)N3CCCCC3)cc2)c1 [CBK295295] is higher in viability at 28.5 h, 10 µM: 90% for the first, 101% for the second.

Going from CCN1C(=O)c2cccc3c(S(=O)(=O)Nc4cccc(C(=O)O)c4)ccc1c23 [CBK299838] to Cc1cc(C)c(C)c(S(=O)(=O)Nc2ccc(C(=O)NCc3ccccn3)cc2)c1C [CBK267275], the viability at 28.5 h, 10 µM falls from 97.5% to 85.8%.

Going from CCc1c(C)nc2ccccc2c1SCCOC(=O)Nc1ccc(OC)cc1 [CBK155554T] to COc1cccc(-c2ccc(NC(=O)c3ccc(Cn4cnnn4)cc3)cc2)c1 [CBK285850], the viability at 28.5 h, 10 µM rises from 92.5% to 93.4%.

Compared with O=C(NCCc1c[nH]cn1)N1CCCN(Cc2ccc(F)cc2)CC1 [CBK307323], O=C(NCCCn1cccn1)N1CCCN(Cc2ccc(Cl)cc2)CC1 [CBK305447] is higher in viability at 28.5 h, 10 µM: 111% for the first, 116% for the second.

First: Cc1ccc2c(c1)nc(CNC(=O)NCCCO)n2C [CBK306174]
Second: Cc1c(C)n(Cc2ccco2)c2ncnc(NCCCC(=O)O)c12 [CBK307562]
The viability at 28.5 h, 10 µM of the first is lower: 86.1% for the first, 90.7% for the second.

Compared with Cc1csc2c(N3CCCC3CC(O)c3cnn(C)c3)ncnc12 (stereo not shown) [CBK304477], CC(=O)Nc1cccc(-c2cnc(N)c(N3CCN(CCN(C)C)CC3)n2)c1 [CBK063472] is lower in viability at 28.5 h, 10 µM: 91.9% for the first, 91.1% for the second.

Compared with N#Cc1cccc(S(=O)(=O)Nc2ccc(-c3nnn[nH]3)cc2)c1 [CBK155427], Oc1ccc(Nc2cc(-c3ccccc3)ncn2)cc1 [CBK291157] is lower in viability at 28.5 h, 10 µM: 95.5% for the first, 79.8% for the second.

First: CNC(=O)c1ccc(-c2cc(OC)c(OC)c(OC)c2)nc1NCC1CC1 [CBK106312]
Second: COc1cc(CN2CCc3c([nH]c4ccccc34)C2)c([N+](=O)[O-])cc1OC [CBK261588]
The viability at 28.5 h, 10 µM of the first is higher: 101% for the first, 90.6% for the second.

Going from Cc1cccc(C)c1NC(=O)CN1CCN(c2nccnc2OCC2COc3ccccc3O2)CC1 (stereo not shown) [CBK082801T] to NC(=O)CN1CCN(c2nccnc2Oc2ccc(F)cc2)CC1 [CBK083018T], the viability at 28.5 h, 10 µM rises from 88.9% to 98.3%.

Compared with OCCN(CCO)c1nc(-c2ccccc2)nc2sc(-c3ccccc3)cc12 [CBK265935], O=C(/C=C/c1ccccc1)NC(NC(=S)Nc1cccc2cccnc12)C(Cl)(Cl)Cl (stereo not shown) [CBK261046] is lower in viability at 28.5 h, 10 µM: 105% for the first, 101% for the second.

Compared with COc1ccccc1NC(=O)NCCC1SC(NC2CCCCCC2)=NC1=O (stereo not shown) [CBK067473], COc1ccccc1CCCNC(=O)CC1CCCCN1C (stereo not shown) [CBK282694] is higher in viability at 28.5 h, 10 µM: 91.8% for the first, 101% for the second.

First: O=C(NCCCn1ccnc1)c1ncoc1-c1cccs1 [CBK282404]
Second: Cc1cccc(C(C)(C)C)c1OCCn1ccnc1 [CBK265084]
The viability at 28.5 h, 10 µM of the first is lower: 92.7% for the first, 109% for the second.

Compared with O=S(=O)(CC(F)(F)F)N(c1ccccc1)C1CCNCC1 [CBK165093T], O=S(=O)(c1c(Cl)cc(C(F)(F)F)cc1Cl)N1CCOCC1 [CBK057736] is lower in viability at 28.5 h, 10 µM: 92.6% for the first, 88.8% for the second.

Going from Cn1c(=O)[nH]c(=O)c2c1nc(CN1CCOCC1)n2Cc1c(F)cccc1Cl [CBK270085] to COc1ccc(C2NC(C(=O)O)CS2)cc1CN1CCOCC1 (stereo not shown) [CBK287132], the viability at 28.5 h, 10 µM falls from 90.5% to 87.4%.

Going from O=C(O)c1ccc2c(c1)C(=O)N(c1nc(-c3cccnc3)n[nH]1)C2=O [CBK268284] to O=C(O)c1ccc(Oc2ccc3c(c2)C(=O)N(c2nccs2)C3=O)cc1 [CBK261200], the viability at 28.5 h, 10 µM rises from 100% to 101%.

Compared with O=[N+]([O-])c1ccc(O)c(C(C#Cc2ccccc2)N2CCOCC2)c1 (stereo not shown) [CBK262741], CC(=O)Nc1ccc(S(=O)(=O)N2CCN(c3ccc([N+](=O)[O-])c(N4CCOCC4)c3)CC2)cc1 [CBK264764] is higher in viability at 28.5 h, 10 µM: 93.2% for the first, 109% for the second.

Going from O=C(CSCc1ccc(Cl)cc1Cl)Nc1ccc(Oc2ccc3c(c2)C(=O)NC3=O)cc1 [CBK266779] to O=C(CSCc1ccc([N+](=O)[O-])cc1)Nc1ccc2c(c1)OCO2 [CBK264031], the viability at 28.5 h, 10 µM rises from 92.2% to 95.7%.

Going from COc1ccc(C2Oc3cccnc3N(CCCN(C)C)C2=O)cc1 (stereo not shown) [CBK007694] to CCOC(=O)c1cccnc1-c1cc2ccccc2o1 [CBK149237], the viability at 28.5 h, 10 µM falls from 101% to 99.7%.

Going from CCN(CC)CCNC(=O)/C(=N\O)c1ccccc1 [CBK288408] to O=C(O)c1ccccc1C(=O)NCCC1=CCCCC1 [CBK287113], the viability at 28.5 h, 10 µM falls from 106% to 87.8%.

First: COc1cc(S(=O)(=O)NCCc2ccccc2)c(OC)cc1C [CBK269868]
Second: CS(=O)(=O)NCCCNc1ccc(C(F)(F)F)cc1[N+](=O)[O-] [CBK263741]
The viability at 28.5 h, 10 µM of the first is higher: 94.1% for the first, 73.1% for the second.

Going from Oc1cccc(OCCOc2nc3cc(Cl)c(Cl)cc3nc2N2CCCC2)c1 [CBK115778] to O=C(c1ccc(COc2ccc(I)cc2)cc1)N1CCCCCC1 [CBK058852], the viability at 28.5 h, 10 µM falls from 100% to 83.4%.

Going from CS(=O)(=O)Nc1nccnc1OC1CCN(CC2CCCCC2)CC1 [CBK084284] to N#CCCN(C(=O)NCCN1CCOCC1)C1CCCCC1 [CBK156357], the viability at 28.5 h, 10 µM rises from 89.9% to 107%.

Compared with CCn1nc(C(C)C)cc1C(=O)N1CC2(CCNCC2)CC1C(=O)O (stereo not shown) [CBK307179], Cc1ccn(CCC(=O)N2CCC3(C/C=C/C[C@H]4COCC[C@@H]4NC(=O)CNC3=O)CC2)n1 [CBK292070] is lower in viability at 28.5 h, 10 µM: 90.9% for the first, 86% for the second.

Compared with c1cnn(C2CCCN(Cc3ccc(Oc4cnccn4)cc3)C2)c1 (stereo not shown) [CBK304043], O=C(COc1ccc(Cl)cc1)NNC(=O)c1cccnc1 [CBK261044] is higher in viability at 28.5 h, 10 µM: 96.9% for the first, 97.4% for the second.

First: Cc1ccc(S(=O)(=O)N(CCO)CC2CC2)c(Cl)c1 [CBK304885]
Second: CCCc1[nH]nc(O)c1Cc1ccc(Cl)cc1 [CBK075013]
The viability at 28.5 h, 10 µM of the first is lower: 75% for the first, 90% for the second.

Going from CCCOc1ccc(Cc2nnn[nH]2)cc1 [CBK262590] to CCc1nnc(Sc2ccc(C=O)cc2[N+](=O)[O-])[nH]1 [CBK268876], the viability at 28.5 h, 10 µM rises from 83.9% to 95.4%.

First: CC(=O)c1c[nH]c(=O)[nH]c1=O [CBK012093]
Second: COCC(=O)N1CCC2(CC1)CC(=O)c1cc(Cl)cc(Cl)c1O2 [CBK156440]
The viability at 28.5 h, 10 µM of the first is higher: 115% for the first, 84.1% for the second.

In the case of O=c1oc2cc(S(=O)(=O)NCc3ccco3)ccc2c2ccc(S(=O)(=O)NCc3ccco3)cc12 [CBK267177], the viability at 28.5 h, 10 µM was 96.5%.

same assay, conditions: human, hela cells, % viability, bulk resorufin, single well

For CC(=O)N1CCC2(CC1)OCc1cc(-c3ccc(Cl)cc3)ccc1O2 [CBK060974], the viability at 28.5 h, 10 µM was 113%.
